From US20240238274A1, “INHIBITORS OF UBIQUITIN SPECIFIC PEPTIDASE 22 (USP22) AND USES THEREOF FOR TREATING DISEASE AND DISORDERS” (Northwestern University, priority 2021, published 2024)

Columns and labels:
USP22 = target: T1, USP22 (Mus musculus, UniProt Q5DU02); assay: Biological screening of the 25 chemicals, FOXP3 MFI reduction as readout; assay type: cell-based; conditions: biological validation of the 25 chemicals
T1 construct: endogenous in cells; probably murine iTreg
T1 sequence (Q5DU02 1-525): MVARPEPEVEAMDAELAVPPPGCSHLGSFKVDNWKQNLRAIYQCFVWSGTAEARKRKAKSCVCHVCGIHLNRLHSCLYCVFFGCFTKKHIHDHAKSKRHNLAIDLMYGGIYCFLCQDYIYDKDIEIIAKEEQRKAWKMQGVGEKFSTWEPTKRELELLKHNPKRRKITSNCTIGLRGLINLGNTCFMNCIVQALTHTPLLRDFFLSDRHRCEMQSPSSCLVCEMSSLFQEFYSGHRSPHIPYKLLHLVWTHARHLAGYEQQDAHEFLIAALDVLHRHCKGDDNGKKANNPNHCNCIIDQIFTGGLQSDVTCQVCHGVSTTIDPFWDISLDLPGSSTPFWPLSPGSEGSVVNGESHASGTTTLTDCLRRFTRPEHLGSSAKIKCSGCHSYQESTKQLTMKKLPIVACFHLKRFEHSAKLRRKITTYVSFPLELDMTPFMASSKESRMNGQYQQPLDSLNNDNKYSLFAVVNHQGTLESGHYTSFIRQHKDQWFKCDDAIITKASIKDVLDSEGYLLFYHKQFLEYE
T1 sequence (A2AWT3 1-347 partner): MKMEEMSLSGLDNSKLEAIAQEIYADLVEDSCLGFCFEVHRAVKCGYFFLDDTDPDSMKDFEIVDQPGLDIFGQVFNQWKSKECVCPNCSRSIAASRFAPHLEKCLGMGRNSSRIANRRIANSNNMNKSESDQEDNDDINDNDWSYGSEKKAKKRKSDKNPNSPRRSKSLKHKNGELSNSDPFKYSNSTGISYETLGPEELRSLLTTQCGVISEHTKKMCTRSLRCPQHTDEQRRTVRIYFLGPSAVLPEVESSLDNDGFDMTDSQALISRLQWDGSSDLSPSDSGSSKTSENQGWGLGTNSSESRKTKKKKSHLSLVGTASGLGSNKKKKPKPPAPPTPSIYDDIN
T1 sequence (Q9JIX0 1-101 partner): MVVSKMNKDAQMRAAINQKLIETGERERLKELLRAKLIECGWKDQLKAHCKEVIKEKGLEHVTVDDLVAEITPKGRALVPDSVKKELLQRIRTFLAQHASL
From the text: We then used both Lipinski's Rule and Veber's Rule to filter through the Specs database and found a total of 240K compounds binding to the catalytic pocket of our Usp22 model. We then filtered the top 100 compounds ranked by docking affinity by MD and MM/PBSA methods and were left with 25 compounds (Table 1). This limited number of compounds allowed us for further biological screening. As USP22 suppression leads to dramatic reduction in FOXP3 expression levels, we utilized FOXP3 MFI reduction as a readout for the biological validation of USP22 inhibitory efficacy by each of the 25 chemicals. […] The compound S02, structure shown in FIG. 6A, bound stably in the USP22 catalytic domain pocket shown by the RMSD trajectory (FIG. 14E) with strong binding energies to our USP22-md model (FIG. 14F). […] Therefore, future generations of Usp22 inhibitors should take into considerations not only the hydrophobic residues, but also the interaction between the inhibitor and the charged and polar residues on the surface of the binding pocket.

naïve mice = assay: In vivo toxicity and Treg phenotype in naïve mice
Procedure: D, Graphical representation of Foxp3 MFI upon Usp22i-S02 administration (n=5). E, Tumor growth curve of LLC1 cells subcutaneously injected in the flank of WT mice with or without the addition of 20 mg/kg/time of the Usp22 inhibitor starting at day 15, in 100 μL of oil (n=4). F-G, Representative flow cytometry plot and graphical representation of % infiltration of CD4+ and CD8+ T cells within the tumor (n=4). […] I, MFI of itTreg suppressive markers (n=3-4). […] B, D-E, G, H-I Two-way ANOVA with multiple comparisons between rows was performed to determine statistical significance. J, Unpaired two tailed T test was performed to determine significance. All data are presented as mean±stdev. NS, not significant. *P<0.05, **P<0.01, ***P<0.001, ****P<0.0001.
A, Body weight of Usp22i-S02 treated mice verses DMSO treated controls over the course of treatment (n=4). […] B, Percent of cell populations in naïve mice treated with Usp22i-S02 relative to DMSO control (n=3-4). […] E, Percent Annexin+PI+ T cells gates on CD45+ cells in naïve mice treated with Usp22i-S02 relative to DMSO control (n=4). F-H, Organ toxicity panel (VetScan VS2 Comprehensive Diagnostic Rotor lot 1061AA2) of naïve mice treated with Usp22i-S02 relative to DMSO control (n=2-3). […] J, Weights of resected tumors at day 16 from I (n=10). K-L, Representative flow plot and graphical representation of infiltrating T cells gated on CD45+ cells (n=5). […] Q, Percent of intratumoral Treg cells from mice treated with Usp22i-S02 verses DMSO control, gated on CD4+Foxp3+ from mice (n=5). A-E, I and L, Two-way ANOVA with Sidaks's multiple comparisons between rows relative to control was performed to determine statistical significance. F-H, J, and M-Q, Two-tailed unpaired t-test was performed to determine statistical significance. All data are presented as mean±stdev. NS, not significant. *P<0.05, **P<0.01, ***P<0.001, ****P<0.0001.
An important aspect of a potential immunotherapeutic is its antitumor functionality paired with low immune toxicity. To determine the toxicity of Usp22i-S02 in vivo, we first determined its effects in naïve mice.

LLC1 cells = LLC1 cells in vitro: counts, viability, growth; assay type: cell-based
Procedure: (§1) FIG. 17: Usp22i-S02 inhibits tumor growth in vitro and in vivo. A, In vitro counts of LLC1 after treatment with Usp22i-S02 under various concentrations for 24 hours (n=2). B, In vitro viability of LLC1 after treatment with Usp22i-S02 under various concentrations for 24 hours (n=2). C, In vitro relative growth of LLC1 cells treated with 10 ug/ml of Usp22i-S02 relative to DMSO treated control for 7 days via OD600 (n=4). D, Growth curve of 1 million subcutaneously injected LLC1 cells into RAG−/− mice treated for 3 days Usp22i-S02 relative to DMSO control injections at day 15 of tumor growth (n=4). C-D, Two-way ANOVA with Sidaks's multiple comparisons between rows relative to control was performed to determine statistical significance. All data are presented as mean±stdev. NS, not significant. *P<0.05, **P<0.01, ***P<0.001, ****P<0.0001.
(§2) As Usp22 is also an important oncogene (43, 44), we were interested in the potential dual-therapeutic function of Usp22i-S02.

LLC1 tumors = assay: Established LLC1 tumors in Rag−/− mice; assay type: in vivo; conditions: Rag−/− mice with established LLC1 tumors, treated 3 days
Procedure: as §1, §2

`N#Cc1c2c(c(Nc3ccccc3)n3c1nc1ccccc13)CCCC2` [Chemical S02, 11-anilino-7,8,9,10-tetrahydro-benzimidazo [1,2-b] isoquinoline-6-carbonitrile] was tested. Which “efficacy in downregulating FOXP3 expression” value (USP22) did it give?
Its value is “strong efficacy in downregulating FOXP3 expression”.

And the “FOXP3 MFI in Treg cells from the spleen and lymph nodes” value (naïve mice; WT mice, 20 mg/kg in vivo)?
The value was “significant drop in FOXP3 MFI”.

And the Treg cell death (naïve mice; naïve mice vs DMSO control)?
The Treg cell death was “significantly increased”.

And the “organ toxicity (comprehensive tissue panel)” value (naïve mice; naïve mice vs DMSO-treated control)?
The value was “no organ toxicity differences”.

And the “weights, B cell and Teff cell percentages and proliferation, Teff cell activation” value (naïve mice; naïve mice vs DMSO-treated control, 10 mg/kg twice a day for 3 days)?
The value was “little alteration”.

What about the “tumor cell counts, viability and growth” value (LLC1 cells) of the same compound?
The value was “decreased tumor cell counts, viability, and growth”.

And the tumor growth (LLC1 tumors)?
Its tumor growth is “small but statistically significant decrease in tumor growth”.
